Measured values from US20240251785A1, “SMALL MOLECULE ANTAGONISTS AND AGONISTS OF ARTHROPOD KININ RECEPTORS FOR PEST CONTROL” (The Texas A&M University System, priority 2021, published 2024).

What follows are molecules tested on R. microplus kinin receptor (assay: High-throughput dual-addition calcium fluorescence screen on BMLK3 cells). Conditions: compound 2 μmol L^−1, first addition; relative to FFFSWGa 500 nmol L^−1.
Type: cell-based, Rhipicephalus microplus

In order of falling “agonist NPA (%)” value:
1. CCOc1ccc(NC(=N)/N=c2/nc(C(F)(F)F)cc(C)[nH]2)cc1 [SACC-0060049]  104%
2. CCOC(=O)c1[nH]c2ccc(Br)cc2c1N=C(C)N(C)C [SACC-0055903]  75%
3. O=C(Nc1ccc(I)cc1)C(Cl)(Cl)Cl [SACC-0062945]  61%

These molecules were tested against recombinant tick kinin receptor (BMLK3) (Rhipicephalus microplus, UniProt Q9NHA4) (assay: Dose-response dual-addition calcium fluorescence assay on BMLK3 cells). Conditions: Table 3.
Sequence of recombinant tick kinin receptor (BMLK3) (Q9NHA4 entry or part of it): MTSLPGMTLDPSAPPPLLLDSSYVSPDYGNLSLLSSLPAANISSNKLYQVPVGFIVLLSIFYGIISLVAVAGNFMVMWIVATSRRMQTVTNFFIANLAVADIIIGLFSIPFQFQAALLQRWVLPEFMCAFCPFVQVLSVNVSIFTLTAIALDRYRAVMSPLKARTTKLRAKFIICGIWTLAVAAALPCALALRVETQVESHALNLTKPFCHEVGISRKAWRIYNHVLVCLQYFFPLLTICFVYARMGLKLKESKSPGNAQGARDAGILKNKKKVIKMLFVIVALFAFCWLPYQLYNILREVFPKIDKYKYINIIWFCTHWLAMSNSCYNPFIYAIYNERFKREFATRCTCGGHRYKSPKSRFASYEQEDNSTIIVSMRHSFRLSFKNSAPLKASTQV
Type: cell-based

For CCOC(=O)c1[nH]c2ccc(Br)cc2c1N=C(C)N(C)C [SACC-0055903], the “validation mark in dose-response assay” value was “*** (molecules which are either off-target or of low activity (<25 μM))”.
In the case of CCOc1ccc(NC(=N)/N=c2/nc(C(F)(F)F)cc(C)[nH]2)cc1 [SACC-0060049], the “validation mark in dose-response assay” value is reported as “*** (molecules which are either off-target or of low activity (<25 μM))”.
O=C(Nc1ccc(I)cc1)C(Cl)(Cl)Cl [SACC-0062945] was tested, and the “validation mark in dose-response assay” value was “*** (molecules which are either off-target or of low activity (<25 μM))”.

Same assay, conditions: first addition, 20 concentrations 28 nM-25 μM; read-out: BMLK3 EC50

CCOC(=O)c1[nH]c2ccc(Br)cc2c1N=C(C)N(C)C [SACC-0055903] and CCOc1ccc(NC(=N)/N=c2/nc(C(F)(F)F)cc(C)[nH]2)cc1 [SACC-0060049] are within 1.5-fold of each other in EC50: 6760 nM for the first, 4550 nM for the second.

O=C(Nc1ccc(I)cc1)C(Cl)(Cl)Cl [SACC-0062945] was tested, and the EC50 was less than 28.5 nM.

Same assay, conditions: second addition Rhimi-K-1 1 μmol L^−1; read-out: BMLK3 IC50

Going from CCOC(=O)c1[nH]c2ccc(Br)cc2c1N=C(C)N(C)C [SACC-0055903] to CCOc1ccc(NC(=N)/N=c2/nc(C(F)(F)F)cc(C)[nH]2)cc1 [SACC-0060049], the IC50 rises from 6020 nM to greater than 25000 nM. The first is the more potent here.

O=C(Nc1ccc(I)cc1)C(Cl)(Cl)Cl [SACC-0062945] showed an IC50 of 128 nM.

Same assay, conditions: virtual hit molecules; dual-addition assay, recombinant tick kinin receptor (BMLK3) cells; read-out: BMLK3 EC50

First: O=[N+]([O-])c1ccc2nc(Nc3ccc(Br)cc3)c(Nc3ccc(Br)cc3)nc2c1 [SACC-0005102]
Second: c1ccc(-c2csc3ncnc(Nc4ccc5c(c4)OCCO5)c23)cc1 [SACC-0011565]
The EC50 of the first is 26-fold higher: 1080 nM for the first, 41.7 nM for the second. The second is the more potent here.

Compared with C=CCNC(=S)NNC1=CC[C@@H](c2ccccc2)CC1 [SACC-0010978], S=C(NCc1ccccc1)NN=C1CCC(c2ccccc2)CC1 (stereo not shown) [SACC-0131532] is lower in EC50: greater than 25000 nM for the first, 16600 nM for the second.

First: c1ccc(-c2csc3ncnc(N4CCCC4c4cccnc4)c23)cc1 (stereo not shown) [SACC-0011206]
Second: Clc1ccc(-c2csc3ncnc(N4CCN(c5ccccn5)CC4)c23)cc1 [SACC-0064924]
The EC50 of the first is higher: greater than 25000 nM for the first, 17300 nM for the second.

Cc1ccc(S(=O)(=O)Nc2nc(CN3CCCC3)nc3sc(C)c(C)c23)cc1 [SACC-0025777] and CCC(CO)Nc1nc(CN2CCCCC2)nc2scc(-c3ccccc3)c12 (stereo not shown) [SACC-0046099] cannot be ordered by EC50: greater than 25000 nM for the first, greater than 25000 nM for the second.

First: CC1=CC(=NNC(=S)NCc2ccccc2)CC1 [SACC-0029249]
Second: O=C(c1ccco1)N1CCN(c2cccc3scc(-c4cccs4)c23)CC1 [SACC-0117388]
The EC50 of the first is higher: greater than 25000 nM for the first, 124 nM for the second. The second is the more potent here.

Going from Cc1nc(-c2ccc(CNc3ncnc4sccc34)o2)cs1 [SACC-0039825] to CCc1cc2c(NCc3ccco3)nc(C)nc2s1 [SACC-0047526], the EC50 rises from less than 28.5 nM to greater than 25000 nM. The first is the more potent here.

First: CN1/C(=C/C=C/c2ccc3ccccc3[n+]2C)C=Cc2ccccc21 [SACC-0072383]
Second: N#CC(=C(O)c1ccc(-c2ccc(Cl)cc2Cl)o1)c1nc2ccccc2c(=O)[nH]1 [SACC-0112961]
The EC50 of the first is lower: 326 nM for the first, greater than 25000 nM for the second. The first is the more potent here.

Compared with COc1ccc(C=Nn2c(C(F)(F)F)n[nH]c2=S)cc1 [SACC-0087120], COc1cc2c(cc1OC)CN(c1ncnc3scc(-c4ccc(Cl)cc4)c13)CC2 [SACC-0095849] is higher in EC50: 1110 nM for the first, greater than 25000 nM for the second. The first is the more potent here.

Same assay, conditions: virtual hit molecules; dual-addition assay, recombinant tick kinin receptor (BMLK3) cells; read-out: BMLK3 antagonist IC50

Compared with O=[N+]([O-])c1ccc2nc(Nc3ccc(Br)cc3)c(Nc3ccc(Br)cc3)nc2c1 [SACC-0005102], c1ccc(-c2csc3ncnc(Nc4ccc5c(c4)OCCO5)c23)cc1 [SACC-0011565] is higher in IC50: 83.2 nM for the first, greater than 25000 nM for the second.

Compared with C=CCNC(=S)NNC1=CC[C@@H](c2ccccc2)CC1 [SACC-0010978], S=C(NCc1ccccc1)NN=C1CCC(c2ccccc2)CC1 (stereo not shown) [SACC-0131532] is 7-fold lower in IC50: 9820 nM for the first, 1410 nM for the second. The second is the more potent here.

First: c1ccc(-c2csc3ncnc(N4CCCC4c4cccnc4)c23)cc1 (stereo not shown) [SACC-0011206]
Second: Clc1ccc(-c2csc3ncnc(N4CCN(c5ccccn5)CC4)c23)cc1 [SACC-0064924]
The IC50 of the first is higher: 6540 nM for the first, less than 28.5 nM for the second.

Compared with Cc1ccc(S(=O)(=O)Nc2nc(CN3CCCC3)nc3sc(C)c(C)c23)cc1 [SACC-0025777], CCC(CO)Nc1nc(CN2CCCCC2)nc2scc(-c3ccccc3)c12 (stereo not shown) [SACC-0046099] is 78-fold higher in IC50: 106 nM for the first, 8310 nM for the second. The first is the more potent here.

Compared with CC1=CC(=NNC(=S)NCc2ccccc2)CC1 [SACC-0029249], O=C(c1ccco1)N1CCN(c2cccc3scc(-c4cccs4)c23)CC1 [SACC-0117388] is 7-fold higher in IC50: 1880 nM for the first, 13200 nM for the second.

Compared with Cc1nc(-c2ccc(CNc3ncnc4sccc34)o2)cs1 [SACC-0039825], CCc1cc2c(NCc3ccco3)nc(C)nc2s1 [SACC-0047526] is higher in IC50: 8060 nM for the first, greater than 25000 nM for the second. The first is the more potent here.

First: CN1/C(=C/C=C/c2ccc3ccccc3[n+]2C)C=Cc2ccccc21 [SACC-0072383]
Second: N#CC(=C(O)c1ccc(-c2ccc(Cl)cc2Cl)o1)c1nc2ccccc2c(=O)[nH]1 [SACC-0112961]
The IC50 of the first is higher: 501 nM for the first, less than 28.5 nM for the second.

First: COc1ccc(C=Nn2c(C(F)(F)F)n[nH]c2=S)cc1 [SACC-0087120]
Second: COc1cc2c(cc1OC)CN(c1ncnc3scc(-c4ccc(Cl)cc4)c13)CC2 [SACC-0095849]
The IC50 of the first is lower: less than 28.5 nM for the first, 8470 nM for the second. The first is the more potent here.

Each molecule was assayed on vector-only (V/O) CHO-K1 cells (assay: Dose-response dual-addition calcium fluorescence assay on vector-only cells). Conditions: V/O cells, first addition.
Type: cell-based

In order of rising EC50:
1. O=C(Nc1ccc(I)cc1)C(Cl)(Cl)Cl [SACC-0062945]  60.4 nM
2. CCOc1ccc(NC(=N)/N=c2/nc(C(F)(F)F)cc(C)[nH]2)cc1 [SACC-0060049]  1930 nM
3. CCOC(=O)c1[nH]c2ccc(Br)cc2c1N=C(C)N(C)C [SACC-0055903]  3680 nM

Same assay, conditions: V/O cells, second addition Rhimi-K-1 1 μmol L^−1; read-out: V/O antagonist IC50

In order of falling IC50:
1. O=C(Nc1ccc(I)cc1)C(Cl)(Cl)Cl [SACC-0062945]  3840 nM
2. CCOC(=O)c1[nH]c2ccc(Br)cc2c1N=C(C)N(C)C [SACC-0055903]  2630 nM
3. CCOc1ccc(NC(=N)/N=c2/nc(C(F)(F)F)cc(C)[nH]2)cc1 [SACC-0060049]  243 nM

Same assay, conditions: virtual hit molecules; dual-addition assay, vector-only cell (V/O)

Compared with O=[N+]([O-])c1ccc2nc(Nc3ccc(Br)cc3)c(Nc3ccc(Br)cc3)nc2c1 [SACC-0005102], c1ccc(-c2csc3ncnc(Nc4ccc5c(c4)OCCO5)c23)cc1 [SACC-0011565] is higher in EC50: 485 nM for the first, greater than 25000 nM for the second. The first is the more potent here.

First: C=CCNC(=S)NNC1=CC[C@@H](c2ccccc2)CC1 [SACC-0010978]
Second: S=C(NCc1ccccc1)NN=C1CCC(c2ccccc2)CC1 (stereo not shown) [SACC-0131532]
The EC50 of the first is lower: 67.7 nM for the first, greater than 25000 nM for the second.

c1ccc(-c2csc3ncnc(N4CCCC4c4cccnc4)c23)cc1 (stereo not shown) [SACC-0011206] and Clc1ccc(-c2csc3ncnc(N4CCN(c5ccccn5)CC4)c23)cc1 [SACC-0064924] are within 1.5-fold of each other in EC50: 17500 nM for the first, 11900 nM for the second.

Going from Cc1ccc(S(=O)(=O)Nc2nc(CN3CCCC3)nc3sc(C)c(C)c23)cc1 [SACC-0025777] to CCC(CO)Nc1nc(CN2CCCCC2)nc2scc(-c3ccccc3)c12 (stereo not shown) [SACC-0046099], the EC50 rises from 1570 nM to 3580 nM (2.3-fold). The first is the more potent here.

Going from CC1=CC(=NNC(=S)NCc2ccccc2)CC1 [SACC-0029249] to O=C(c1ccco1)N1CCN(c2cccc3scc(-c4cccs4)c23)CC1 [SACC-0117388], the EC50 falls from greater than 25000 nM to 1780 nM. The second is the more potent here.

Cc1nc(-c2ccc(CNc3ncnc4sccc34)o2)cs1 [SACC-0039825] and CCc1cc2c(NCc3ccco3)nc(C)nc2s1 [SACC-0047526] cannot be ordered by EC50: greater than 25000 nM for the first, greater than 25000 nM for the second.

CN1/C(=C/C=C/c2ccc3ccccc3[n+]2C)C=Cc2ccccc21 [SACC-0072383] and N#CC(=C(O)c1ccc(-c2ccc(Cl)cc2Cl)o1)c1nc2ccccc2c(=O)[nH]1 [SACC-0112961] are within 1.5-fold of each other in EC50: 294 nM for the first, 243 nM for the second.

Going from COc1ccc(C=Nn2c(C(F)(F)F)n[nH]c2=S)cc1 [SACC-0087120] to COc1cc2c(cc1OC)CN(c1ncnc3scc(-c4ccc(Cl)cc4)c13)CC2 [SACC-0095849], the EC50 falls from 3160 nM to 393 nM (8-fold).

Same assay, conditions: virtual hit molecules; dual-addition assay, vector-only cell (V/O); read-out: V/O antagonist IC50

First: O=[N+]([O-])c1ccc2nc(Nc3ccc(Br)cc3)c(Nc3ccc(Br)cc3)nc2c1 [SACC-0005102]
Second: c1ccc(-c2csc3ncnc(Nc4ccc5c(c4)OCCO5)c23)cc1 [SACC-0011565]
The IC50 of the first is 6.9-fold lower: 177 nM for the first, 1220 nM for the second. The first is the more potent here.

First: C=CCNC(=S)NNC1=CC[C@@H](c2ccccc2)CC1 [SACC-0010978]
Second: S=C(NCc1ccccc1)NN=C1CCC(c2ccccc2)CC1 (stereo not shown) [SACC-0131532]
The IC50 of the first is lower: 12200 nM for the first, greater than 25000 nM for the second. The first is the more potent here.

Compared with c1ccc(-c2csc3ncnc(N4CCCC4c4cccnc4)c23)cc1 (stereo not shown) [SACC-0011206], Clc1ccc(-c2csc3ncnc(N4CCN(c5ccccn5)CC4)c23)cc1 [SACC-0064924] is higher in IC50: 985 nM for the first, greater than 25000 nM for the second. The first is the more potent here.

Compared with Cc1ccc(S(=O)(=O)Nc2nc(CN3CCCC3)nc3sc(C)c(C)c23)cc1 [SACC-0025777], CCC(CO)Nc1nc(CN2CCCCC2)nc2scc(-c3ccccc3)c12 (stereo not shown) [SACC-0046099] is lower in IC50: greater than 25000 nM for the first, 2450 nM for the second.

First: CC1=CC(=NNC(=S)NCc2ccccc2)CC1 [SACC-0029249]
Second: O=C(c1ccco1)N1CCN(c2cccc3scc(-c4cccs4)c23)CC1 [SACC-0117388]
The IC50 of the first is lower: less than 28.5 nM for the first, 8390 nM for the second.

Going from Cc1nc(-c2ccc(CNc3ncnc4sccc34)o2)cs1 [SACC-0039825] to CCc1cc2c(NCc3ccco3)nc(C)nc2s1 [SACC-0047526], the IC50 rises from 334 nM to greater than 25000 nM.

CN1/C(=C/C=C/c2ccc3ccccc3[n+]2C)C=Cc2ccccc21 [SACC-0072383] and N#CC(=C(O)c1ccc(-c2ccc(Cl)cc2Cl)o1)c1nc2ccccc2c(=O)[nH]1 [SACC-0112961] cannot be ordered by IC50: greater than 25000 nM for the first, greater than 25000 nM for the second.

First: COc1ccc(C=Nn2c(C(F)(F)F)n[nH]c2=S)cc1 [SACC-0087120]
Second: COc1cc2c(cc1OC)CN(c1ncnc3scc(-c4ccc(Cl)cc4)c13)CC2 [SACC-0095849]
The IC50 of the first is higher: greater than 25000 nM for the first, 914 nM for the second.
